In series [1] the test system is bloodstream forms of Trypanosoma brucei brucei. Briefly: resazurin-based antitrypanosomal inhibition assay. The conditions noted are these: for pIC50 T. b. b.: Table 2. The class given is cell-based. As for the experimental part:
Parasites were axenically cultivated in sterile vented flasks containing complete Hirumi’s modified Iscove’s medium 9 (HMI-9) [500 mL IMDM (Iscove’s modified Dulbecco’s medium) (Gibco, Waltham, MA, USA) supplemented with 10% (v/v) heat-inactivated fetal bovine serum (HIFBS) (Sigma Aldrich), 10% (v/v) serum plus (Sigma Aldrich), HMI-9 supplement (1 mM hypoxanthine, 0.16 mM thymidine, 50 µM bathocuproine disulfonic acid, 1.5 mM cysteine, 1.25 Mm pyruvic acid, 0.2 mM 2-mercaptoethanol (Sigma Aldrich)), and 1% (v/v) penicillin–streptomycin (Sigma Aldrich) and incubated at 37 °C in a 5% CO2 atmosphere.
The in vitro inhibitory potency of the 400 MMVPB compounds against bloodstream forms of Trypanosoma brucei brucei was evaluated using the resazurin-based inhibition assay as previously described. Briefly, parasites at their mid-logarithmic growth phase were counted, and the cell density was adjusted with fresh complete HMI-9 medium to 2 × 10^5 trypanosomes per mL. Then, 90 µL of parasite suspension was then distributed into the wells of 96-well flat-bottomed plates containing 10 µL of compounds for a final test concentration of 10 µM. […] Each assay plate was set up in duplicate and repeated two times. The percent parasite inhibition was determined for each compound based on fluorescence readouts relative to the mean fluorescence of negative control wells.
y = 100/[1+ 10^(logIC50/99-x)H], where H is the hill coefficient or slope factor [60].
On the technique in general: The colour change of resazurin is a common sign of viable cells or microbes.

The next series in a line: in vitro. The settings on record: African green monkey. Here is the method:
(§1) The resulting pellet was resuspended and counted in a Neubauer chamber in the presence of trypan blue to exclude nonviable cells colored in blue. Once the cell load was estimated, they were either used for the next passage in a new flask or processed for the cytotoxicity assay.
(§2) Briefly, Vero cells at a density of 10^4 cells per well were plated in 100 µL of complete DMEM and incubated overnight to allow cell attachment. Plates were then controlled under an inverted fluorescence microscope (Lumascope LS520) to ensure adherence, sterility and cell integrity. Thereafter, culture medium from each well was carefully emptied, and plates were filled with 90 µL of fresh complete medium followed by the addition of 10 µL of serial 5-fold dilutions of compound solutions. […] Fluorescence was then read using a Magelan Infinite M200 fluorescence multiwell plate reader (Tecan) with excitation and emission wavelengths of 530 and 590 nm, respectively. The percentage of cell viability was calculated from readouts, and the median cytotoxic concentration (CC50) for each compound was deduced from concentration–response curves using GraphPad Prism 8.0 software as described above. Selectivity indexes were then determined for each test substance as follows: SI = CC50(Vero cells)/IC50(T. brucei brucei).

In series [2] the test system is bloodstream form of Trypanosoma brucei brucei. Put plainly: parasite-killing kinetics and cidal or static effect. The settings on record: IC90 and IC99; removal at 4 h (10) or 24 h (7), subculture in inhibitor-free medium. The format is cell-based. As for the experimental part:
Thus, they were selected, and their effect at various concentrations was assessed on the proliferation rate of the bloodstream form of Trypanosoma brucei brucei using microscopic cell count. […] After specified exposure time intervals (0, 4, 8, 12, 24, 30, 36, 48, 60, 72 h), the content of each well was harvested and counted on a Neubauer hemacytometer to determine the number of mobile parasites. The obtained values were used to plot the growth curves as parasite density (cells/mL) versus incubation time using GraphPad Prism 8.0 software.
Therefore, the ability of parasites to recover post exposure to inhibitors 10 and 7 was further evaluated. […] After that, the cells were washed three times with fresh complete medium by centrifugation at 2500 rpm for 7 min. Cell pellets were thereafter resuspended in fresh complete culture medium in a 24-well plate and subcultured under the same conditions for 68 h for compound 10 and 48 h for compound 7 to achieve the complete parasite growth pattern. Thereafter, cells were enumerated using the Neubauer cell counter at each time point. The assay was performed in duplicate, and the mean cell counts were plotted […] against time using GraphPad Prism 8.0 to assess the cidal or static effect of inhibitors.

For a further series, the system named is Vero cells. Put plainly: cytotoxicity against Vero cells (resazurin viability assay). The conditions noted are these: read-out: CC50 Vero; Table 2. Here is the method:
as §1, §2

For series [3], the system named is kinetoplastids (T. brucei brucei and T. brucei rhodesiense). More on the design: method as in MMV Pathogen Box supporting information. The settings on record: against kinetoplastids; ref MMV Pathogen Box supporting information; read-out: Reported IC50; cited from earlier work.
Another series deals with T. b. brucei. On the set-up: method as in Duffy et al., 13. The settings on record: ref Duffy et al., 13; read-out: IC50 against T. b. brucei; cited from earlier work.
Series [4] relates to DHFR. More on the design: method as in PMID 7799402. The settings on record: read-out: IC50 DHFR Pneumocystis carinii; cited from earlier work.
For series [5], the system named is DHFR. On the set-up: method as in PMID 7799402. The settings on record: read-out: IC50 DHFR Toxoplasma gondii; cited from earlier work.
For series [6], the system named is Cryptosporidium parvum-I DHFR. More on the design: method as in PMID 11709300. The settings on record: in vitro; cited from earlier work.
For another series, the system named is Cryptosporidium parvum. More on the design: method as in PMID 11709300. The conditions noted are these: read-out: IC50 phenotypic whole parasite testing; cited from earlier work.
Another series concerns Toxoplasma gondii. More on the design: method as in PMID 29133550. The settings on record: read-out: IC50 against Toxoplasma gondii; cited from earlier work.
The next series concerns P. falciparum. More on the design: method as in PMID 28674055. The conditions noted are these: cited from earlier work.
A short description of series [7]: ferric ion reducing antioxidant power (FRAP). The conditions noted are these: Fe^3+-reducing activity. As for the experimental part:
Iron is one of the vital elements for all parasites, including trypanosomes, as it plays a key role in pathogenesis and the host immune response. Therefore, iron bioavailability reducing agents to the parasite could be potential candidates for drug development against trypanosomiasis. To this end, we determined the capacity of the test compounds to reduce iron from ferric to ferrous status using the method described by Benzie et al.. Briefly, 25 µL of each compound (7 and 10) was added to 25 µL of a solution of Fe^3+ prepared at 1.2 mg/mL in distilled water in a 96-well microplate. The plate was incubated for 15 min at room temperature in darkness, after which 50 µL of ortho-phenanthroline (0.2% in methanol) was added to achieve final compound concentrations ranging from 400 µM to 0.19 µM. Plates were reincubated for 15 min, and the absorbance was measured at 510 nm. Ascorbic acid was used as a positive control and tested at concentrations ranging from 100 to 0.048 μg/mL. The median reducing concentration (RC50) values of compounds were determined through sigmoidal concentration–response curves using GraphPad Prism version 8.0 software.

The mark [8] stands for this setting: Trypanosoma brucei, Table 4, negative log of IC50 in molar, read-out: pIC50 T. b. b. (converted).
Setting [9] is: Table 2, MMVPB compounds with known anti-kinetoplastid activity, read-out: IC50 ± SD T. b. b.

The text below walks through data of paper PMC9571290, “Preliminary Structure–Activity Relationship Study of the MMV Pathogen Box Compound MMV675968 (2,4-Diaminoquinazoline) Unveils Novel Inhibitors of Trypanosoma brucei brucei” (Molecules, 2022).

The structures appear in SMILES notation. Read-outs that look alike come from different tables or passages of the source. Some results are limits rather than exact numbers.

`N=C(N)c1ccc(OCCCCCOc2ccc(C(=N)N)cc2)cc1` [Pentamidine, reference compound]: the IC50 in series [1] (Trypanosoma brucei, Table 1, reference drugs included in MMVPB, read-out: IC50 ± SD T. b. b.) is 2 ± 0.3 nM; in series [1] (Trypanosoma brucei, Table 1, negative log of IC50 in molar, read-out: pIC50 T. b. b. (converted)) it was 2 nM; in series [1] (setting [8]), 2.24 nM. In addition, the CC50 at 48 h in “in vitro” was above 100 µM. The “cidal or static effect after inhibitor removal” value in [2] is recorded as “static profile”.
Consider `CC1CCCCN1C(=O)NCCc1coc(-c2ccc(F)cc2)n1` (stereo not shown) [MMV688797], for which the IC50 is 60 ± 20 nM in [1] (setting [9]) and 0.13 µM in series [3]. Moreover, the “pIC50 T. b. b.” value in series [1] (negative log of IC50 in molar) is reported as 7.22. The CC50 with Vero cells is above 100 µM.
As for `Cc1nn(C)c(C)c1NS(=O)(=O)c1c(Cl)cc(-c2ccnc(N3CCNCC3)c2)cc1Cl` [MMV688180], the IC50 in [1] (setting [9]) was 2.3 nM; in series [1] (given in nM, read-out: IC50 against T. b. brucei) it was 2.3 nM; in series [3] it was below 0.13 µM; in the series on T. b. brucei it was 0.01 µM. Further, the “pIC50 T. b. b.” value in series [1] (negative log of IC50 in molar) amounted to 8.64. For the same molecule, the CC50 in the series with Vero cells was above 100 µM.
Regarding `COc1ccc(OC)c(NCc2ccc3nc(N)nc(N)c3c2Cl)c1` [Analog 1, 2,4-diamino-5-chloro-6-[(2,5-dimethoxyanilino)methyl]quinazoline], the IC50 in series [1] (Table 4, analogs of MMV675968, solid material, read-out: IC50 ± SD T. b. b.) is 2600 nM; in series [1] (Trypanosoma brucei, Table 3, MMVPB compounds with known potency against other diseases, read-out: IC50 ± SD T. b. b.), 2800 ± 70 nM; in [1] (Trypanosoma brucei, Table 3, negative log of IC50 in molar, read-out: pIC50 T. b. b. (converted)) it was 2820 nM; in [1] (Trypanosoma brucei, Table 4, analogs of MMV675968, solid material, read-out: IC50 ± SD T. b. b.) it was 2600 to 2800 nM; in series [1] (setting [8]), 2630 nM; with DHFR [4] it was 0.051 µM. The IC50 was 0.03 µM with DHFR [5]; 0.0065 µM in series [6]; 0.2 µM in the series on Cryptosporidium parvum; 0.02 µM with Toxoplasma gondii; 0.07 µM in the series on P. falciparum. Further, the CC50 at 48 h in the series “in vitro” is above 100 µM.
Take `CCCCN(CCCC)c1c(C#N)cc(S(=O)(=O)Nc2ccccc2)cc1C#N` [MMV688467]: the figures for the IC50 in [1] (setting [9]) and in series [3] were 3100 ± 500 nM and 0.3 µM, respectively. Moreover, the “pIC50 T. b. b.” value in series [1] (negative log of IC50 in molar) was determined as 5.50. For the same molecule, the CC50 in the series on Vero cells is above 100 µM.
With `N=C(N)Nc1ccc(-c2ccc(-c3ccc(N=C(N)N)c(Cl)c3)o2)cc1Cl` [MMV688271], the values for the IC50 in [1] (setting [9]) and in [3] were 1070 ± 160 nM and 0.6 µM, respectively. For the same molecule, in series [1] (negative log of IC50 in molar), the “pIC50 T. b. b.” value is recorded as 5.97. The CC50 with Vero cells was above 100 µM.
For the molecule `CO[C@@H](C(=O)N1Cc2[nH]nc(NC(=O)c3ccc(N4CCN(C)CC4)cc3)c2C1)c1ccccc1` [MMV676600], the IC50 in series [1] (setting [9]) is 650 ± 7 nM; in series [3] it was 1.02 µM. In addition, the “pIC50 T. b. b.” value in [1] (negative log of IC50 in molar) came out at 6.18. Also, in the series with Vero cells, the CC50 is above 100 µM.
As for `COc1ccc(C2=NN(C3CCCCCC3)C(=O)[C@@H]3CC=CC[C@H]23)cc1OCCCCOc1ccc(-c2nn[nH]n2)cc1` [MMV690027], the figures for the IC50 in [1] (setting [9]) and in [3] were 2800 ± 70 nM and 0.02 µM, respectively. For the same molecule, the “pIC50 T. b. b.” value in series [1] (negative log of IC50 in molar) worked out at 5.55. For the same molecule, the CC50 with Vero cells was above 100 µM.
With `O=C1O[C@H]([C@@H](O)CO)C(O)=C1O` [ascorbic acid, reference compound], the “median reducing concentration (RC50)” value in series [7] worked out at 165 µM.
Turning to `O=C(NCCc1ccn(-c2ccccc2)n1)C1CCCCC1` [MMV688795], the values for the IC50 in [1] (setting [9]) and in series [3] were 350 ± 20 nM and 0.15 µM, respectively. Moreover, in series [1] (negative log of IC50 in molar), the “pIC50 T. b. b.” value is on record as 6.45. Also, the CC50 with Vero cells was above 100 µM.
Consider `O=C(NCc1nnc2n1CCCCC2)c1ccc(-c2ccc(F)cc2)o1` [MMV688796], for which the IC50 is 30 ± 10 nM in [1] (setting [9]) and 0.1 µM in series [3]. Also, in series [1] (negative log of IC50 in molar), the “pIC50 T. b. b.” value was found to be 7.52. Besides, the CC50 with Vero cells is above 100 µM.
